From PMC5071873, “The Effects of Puerarin on Rat Ventricular Myocytes and the Potential Mechanism” (Scientific Reports, 2016)

Target: T1, IKs channel (Homo sapiens, UniProt P51787)
T1 construct: expressed in transfected cells; host or cells: HEK293
Experiment: Single-channel inside-out patch clamp recording of IKs
Assay type: cell-based
Details: puerarin 100 μM, inside-out, intracellular side
Experimental: The Tyrode’s solution contained (mM): 126 NaCl, 5.4 KCl, 1.8 CaCl2, 1 MgCl2, 0.33 NaH2PO4, 10 HEPES and 10 glucose, pH 7.4 (adjusted with NaOH). The Ca^2+-free Tyrode’s solution was prepared by removing CaCl2 from the Tyrode’s solution. The Kreb’s solution used for cell storage contained (mM): 70 glutamic acid, 30 KCl, 15 taurine, 0.5 MgCl2, 10 KH2PO4, 0.5 EGTA, 10 HEPES, 10 glucose, and 1% albumin, pH 7.4 (adjusted with KOH). The enzyme solution used for the rat cardiomyocyte isolation contained 0.08 g/L collagenase (type II) and 1.0 g/L BSA in Kreb’s solution. For action potential recording on cardiomyocyte, the pipette solution contained (mM): 100 potassium aspartate, 30 KCl, 1 MgCl2, 5 Mg-ATP, 5 EGTA, 5 HEPES, pH 7.3 (adjusted with KOH); the Tyrode’s solution was used as the standard bath solution. For whole-cell recording of IKs on myocytes, the pipette solution contained (mM): 125 potassium aspartate, 20 KCl, 1 MgCl2, 5 Mg-ATP, 10 EGTA, 5 HEPES, pH 7.3 (adjusted with KOH); the bath solution contained (mM): 132 NaCl, 4 KCl, 1.8 CaCl2, 1.2 MgCl2, 10 HEPES, 5 glucose, pH 7.4 (adjusted with NaOH). […]
Single-channel activity was recorded at a series of holding levels ranging from 10 mV of 50 mV. […] Single-channel events were listed and analysed by pclampfit 9.0 (single-channel search-in-analyse function). […]

## O=c1c(-c2ccc(O)cc2)coc2c([C@@H]3O[C@H](CO)[C@@H](O)[C@H](O)[C@H]3O)c(O)ccc12 [Puerarin, 8-c-glucoside of daidzein]
  open probability of IKs channel: reduced
